Measurements published in ChEMBL document CHEMBL1150477, “Development of angiotensin II antagonists with equipotent affinity for human AT1 and AT2 receptor subtypes” (Bioorg Med Chem Lett, 1994).
Changes are numbered by the printed parent chain.

How the values were obtained:
[1] = target: T1, Type-2 angiotensin II receptor (Homo sapiens, UniProt P50052); assay: […] inhibitory concentration against AT2 receptor of human adrenal membrane
T1 sequence (P50052 whole entry): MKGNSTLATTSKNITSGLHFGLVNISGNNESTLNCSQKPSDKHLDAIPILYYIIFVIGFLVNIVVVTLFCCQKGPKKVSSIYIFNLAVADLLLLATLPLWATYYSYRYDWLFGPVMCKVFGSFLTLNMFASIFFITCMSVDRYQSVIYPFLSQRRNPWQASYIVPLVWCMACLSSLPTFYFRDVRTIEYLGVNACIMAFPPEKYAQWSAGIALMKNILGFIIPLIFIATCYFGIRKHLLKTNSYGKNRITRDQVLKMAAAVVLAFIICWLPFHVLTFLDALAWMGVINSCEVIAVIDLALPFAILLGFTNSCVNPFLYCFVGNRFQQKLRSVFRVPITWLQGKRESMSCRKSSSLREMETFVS

[2] = target: T2, Type-2 angiotensin II receptor (Rattus norvegicus, UniProt P35351); assay: […] inhibitory concentration against AT2 receptor of rat adrenal membrane
T2 sequence (P35351 whole entry): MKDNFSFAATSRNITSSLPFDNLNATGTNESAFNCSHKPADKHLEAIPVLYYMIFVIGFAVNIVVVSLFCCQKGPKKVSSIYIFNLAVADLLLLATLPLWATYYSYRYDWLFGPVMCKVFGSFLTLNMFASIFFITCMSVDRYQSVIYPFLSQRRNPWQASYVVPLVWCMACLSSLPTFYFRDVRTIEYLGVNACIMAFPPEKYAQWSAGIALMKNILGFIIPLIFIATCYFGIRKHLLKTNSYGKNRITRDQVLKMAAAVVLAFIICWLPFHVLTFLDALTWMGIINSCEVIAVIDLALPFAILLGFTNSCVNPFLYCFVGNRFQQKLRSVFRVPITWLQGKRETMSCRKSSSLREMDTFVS

[3] = target: T3, Type-1 angiotensin II receptor (Oryctolagus cuniculus, UniProt P34976); assay: […] inhibitory concentration against Angiotensin II receptor, type 1 of rabbit aorta membrane
T3 sequence (P34976 whole entry): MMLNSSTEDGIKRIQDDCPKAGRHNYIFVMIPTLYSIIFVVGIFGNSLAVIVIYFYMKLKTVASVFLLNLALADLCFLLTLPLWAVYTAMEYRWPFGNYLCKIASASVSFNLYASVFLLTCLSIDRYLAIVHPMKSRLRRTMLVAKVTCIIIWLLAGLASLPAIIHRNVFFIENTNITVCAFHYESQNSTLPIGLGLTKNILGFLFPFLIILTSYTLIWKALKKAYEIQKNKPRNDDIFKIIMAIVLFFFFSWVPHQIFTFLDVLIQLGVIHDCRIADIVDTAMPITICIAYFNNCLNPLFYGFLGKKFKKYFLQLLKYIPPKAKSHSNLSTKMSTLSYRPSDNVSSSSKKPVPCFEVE

[4] = target: T2, Type-2 angiotensin II receptor; assay: […] inhibitory concentration against Angiotensin II, type 2 of rat midbrain membrane
[5] = target: T4, Angiotensin II receptor (AT-1) type-1 (Rattus norvegicus, UniProt P29089+P25095); assay: […] inhibitory concentration against Angiotensin II receptor, type 1 of rat adrenal membrane
T4 sequence (P29089 whole entry): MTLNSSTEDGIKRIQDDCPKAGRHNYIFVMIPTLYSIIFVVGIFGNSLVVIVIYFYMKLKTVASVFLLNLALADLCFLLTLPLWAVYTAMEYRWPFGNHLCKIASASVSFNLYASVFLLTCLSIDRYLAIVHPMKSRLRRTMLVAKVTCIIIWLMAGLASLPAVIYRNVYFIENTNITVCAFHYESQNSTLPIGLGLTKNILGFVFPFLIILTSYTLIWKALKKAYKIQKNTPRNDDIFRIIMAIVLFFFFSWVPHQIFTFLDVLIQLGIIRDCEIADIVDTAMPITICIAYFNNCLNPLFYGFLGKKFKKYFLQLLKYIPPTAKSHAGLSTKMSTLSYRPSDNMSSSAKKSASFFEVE
T4 sequence (P25095 whole entry): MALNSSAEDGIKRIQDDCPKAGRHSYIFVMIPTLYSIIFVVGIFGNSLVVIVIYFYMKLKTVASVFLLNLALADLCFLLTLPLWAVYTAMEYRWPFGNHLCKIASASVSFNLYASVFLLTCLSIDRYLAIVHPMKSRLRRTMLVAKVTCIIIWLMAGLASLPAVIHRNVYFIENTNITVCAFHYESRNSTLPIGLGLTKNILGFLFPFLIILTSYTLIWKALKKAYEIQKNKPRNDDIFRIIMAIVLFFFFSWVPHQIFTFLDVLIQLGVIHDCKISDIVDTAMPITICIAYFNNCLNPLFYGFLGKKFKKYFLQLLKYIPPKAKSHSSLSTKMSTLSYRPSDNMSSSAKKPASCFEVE

Oryctolagus cuniculus = species on record: Oryctolagus cuniculus; assay: Ratio of inhibitory concentration against AT2 receptor of rat midbrain to AT1 receptor of rabbit aorta
[6] = target: Angiotensin II receptor (Homo sapiens) (UniProt P30556+P50052); assay: Ratio of inhibitory concentration against AT2 receptor and AT1 receptor of human adrenal membrane
[7] = target: Angiotensin II receptor (Rattus norvegicus) (UniProt P29089+P25095+P35351); assay: Ratio of inhibitory concentration against AT2 receptor and AT1 receptor of rat adrenal membrane
[8] = target: T5, Type-1 angiotensin II receptor (Homo sapiens, UniProt P30556); assay: […] inhibitory concentration against Angiotensin II receptor, type 1 of human adrenal membrane
T5 sequence (P30556 whole entry): T3 sequence (P34976 whole entry) with M2I, A49V, V254I, V270I, H272R, K311R, S349T, V353A

Sequence of Angiotensin II receptor (Homo sapiens) (P30556 whole entry, looked up, one chain of several): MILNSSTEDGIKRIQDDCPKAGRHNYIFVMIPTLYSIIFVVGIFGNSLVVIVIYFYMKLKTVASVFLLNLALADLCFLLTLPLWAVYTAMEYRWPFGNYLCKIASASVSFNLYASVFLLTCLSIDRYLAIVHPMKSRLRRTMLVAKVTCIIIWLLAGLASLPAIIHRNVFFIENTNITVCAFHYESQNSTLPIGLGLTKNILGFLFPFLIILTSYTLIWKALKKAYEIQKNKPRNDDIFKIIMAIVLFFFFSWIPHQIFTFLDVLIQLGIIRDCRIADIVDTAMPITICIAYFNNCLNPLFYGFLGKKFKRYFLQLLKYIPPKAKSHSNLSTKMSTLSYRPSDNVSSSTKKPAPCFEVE

Row | SMILES | IC50 [1] | IC50 [2] | IC50 [3] | IC50 [4] | IC50 [5] | Ratio (Oryctolagus cuniculus) | Ratio [6] | Ratio [7] | IC50 [8]
1 | CCCCc1nc2ccc(NC(=O)N(C)C(C)C)cc2c(=O)n1Cc1ccc(-c2ccccc2S(=O)(=O)NC(=O)OCCC2CC2)cc1F | 7.8 nM | 0.36 nM | 0.13 nM | 0.29 nM | 0.23 nM | 2.5 | 7.6 | 1.5 | 1.2 nM
2 | CCc1ccc(C(=O)NS(=O)(=O)c2ccccc2-c2ccc(Cn3c(CC)nc4ccc(NC(=O)NC(C)C)cc4c3=O)c(F)c2)c(F)c1 | 3.1 nM | 0.34 nM | 0.19 nM | 0.25 nM | 0.14 nM | 1.3 | 2 | 2.5 | 1.6 nM
3 | CCCc1nc2ccc(NC(=O)NC(C)C)cc2c(=O)n1Cc1ccc(-c2ccccc2S(=O)(=O)NC(=O)c2ccc(CC)cc2F)cc1F | 4.4 nM | 0.21 nM | 0.2 nM | 0.28 nM | 0.11 nM | 1.4 | 5.3 | 2.3 | 0.84 nM
4 | CCCCOC(=O)NS(=O)(=O)c1ccccc1-c1ccc(Cn2c(CCCC)nc3ccc(NC(=O)N(C)C(C)C)cc3c2=O)c(F)c1 | 7.7 nM | 0.77 nM | 0.19 nM | 0.44 nM | 0.25 nM | 2.7 | 8.7 | 3.2 | 0.89 nM
5 | Cc1nc2ccc(NC(=O)N(C)C(C)C)cc2c(=O)n1Cc1ccc(-c2ccccc2S(=O)(=O)NC(=O)OCCC(C)C)cc1F | 12.5 nM | 0.72 nM | 2.3 nM | 1.05 nM | 0.58 nM | 0.45 | 0.47 | 1.24 | 26.5 nM
6 | CCc1nc2ccc(NC(=O)N(C)C(C)C)cc2c(=O)n1Cc1ccc(-c2ccccc2S(=O)(=O)NC(=O)OCCC(C)C)cc1F | 9.2 nM | 0.3 nM | 0.62 nM | 0.2 nM | 0.3 nM | 0.33 | 0.9 | 1.1 | 10 nM
7 | Cc1nc2ccc(NC(=O)N(C)C)cc2c(=O)n1Cc1ccc(-c2ccccc2S(=O)(=O)NC(=O)OCCC2CC2)cc1F | 12 nM | 2.4 nM | 2.3 nM | 6.6 nM | 2.3 nM | 3.3 | 0.96 | 1.2 | 12 nM
8 | CCCCOC(=O)NS(=O)(=O)c1ccccc1-c1ccc(Cn2c(CCCC)nc3ccc(NC(=O)N(C)C(C)C)cc3c2=O)cc1 | 60 nM |  | 0.24 nM | 2.4 nM |  |  |  |  | 
9 | CCc1ccc(C(=O)NS(=O)(=O)c2ccccc2-c2ccc(Cn3c(CC)nc4ccc(NC(=O)N(C)C(C)C)cc4c3=O)c(F)c2)cc1 | 8.9 nM | 0.93 nM | 0.54 nM | 0.25 nM | 0.14 nM | 1.6 | 1.6 | 2.5 | 5.8 nM
10 | CCc1nc2ccc(NC(=O)NC(C)C)cc2c(=O)n1Cc1ccc(-c2ccccc2S(=O)(=O)NC(=O)OCCC2CC2)cc1F | 6.5 nM | 0.8 nM | 0.92 nM | 0.56 nM | 0.64 nM | 0.61 | 0.9 | 0.92 | 7.2 nM
11 | CCNC(=O)Nc1ccc2nc(CC)n(Cc3ccc(-c4ccccc4S(=O)(=O)NC(=O)OCCC4CC4)cc3F)c(=O)c2c1 | 9.8 nM | 0.8 nM | 0.73 nM | 0.56 nM | 0.64 nM | 0.97 | 0.77 | 0.92 | 12 nM
12 | CCCCCN(C(=O)c1ccccc1)c1ccc2nc(CCC)n(Cc3ccc(-c4ccccc4-c4nn[nH]n4)cc3)c(=O)c2c1 | 7 nM |  | 1.5 nM |  |  |  |  |  | 

More lines, in order of falling IC50 [1], values ahead:

Row | IC50 [1] | IC50 [2] | IC50 [3] | IC50 [4] | IC50 [5] | Ratio (Oryctolagus cuniculus) | Ratio [6] | Ratio [7] | IC50 [8] | SMILES
13 | 65 nM | 4.5 nM | 4 nM | 1.6 nM | 3.9 nM | 0.46 | 1.1 | 1.4 | 59 nM | CCNC(=O)Nc1ccc2nc(CC)n(Cc3ccc(-c4ccccc4S(=O)(=O)NC(=O)c4ccccc4F)cc3F)c(=O)c2c1
14 | 65 nM | 0.95 nM | 2 nM | 0.31 nM | 0.66 nM | 0.16 |  | 1.5 | 18 nM | CCc1nc2ccc(NC(=O)N3CCOCC3)cc2c(=O)n1Cc1ccc(-c2ccccc2S(=O)(=O)NC(=O)OCCC(C)C)cc1F
15 | 32 nM | 2.5 nM | 3.8 nM | 1.3 nM | 1.3 nM | 0.38 | 1 | 2.2 | 33 nM | CCCCOC(=O)NS(=O)(=O)c1ccccc1-c1ccc(Cn2c(CC)nc3ccc(NC(=O)N4CCOCC4)cc3c2=O)c(F)c1
16 | 11 nM | 0.61 nM | 2.2 nM | 0.21 nM | 2 nM | 0.1 | 0.18 | 0.3 | 65 nM | CCc1nc2ccc(NC(=O)N(C)C(C)C)cc2c(=O)n1Cc1ccc(-c2ccccc2S(=O)(=O)NC(=O)COCC(C)C)cc1F
17 | 8 nM | 0.22 nM | 0.23 nM | 0.21 nM | 0.14 nM | 1.3 | 4.4 | 1.5 | 1.9 nM | CCCCc1nc2ccc(NC(=O)N(C)C(C)C)cc2c(=O)n1Cc1ccc(-c2ccccc2S(=O)(=O)NC(=O)OCCC(C)C)cc1F
18 | 3.5 nM | 0.38 nM | 0.52 nM | 1 nM | 0.17 nM | 1.7 | 2.3 | 2.1 | 1.5 nM | CCCc1nc2ccc(NC(=O)NC(C)C)cc2c(=O)n1Cc1ccc(-c2ccccc2S(=O)(=O)NC(=O)COCC(C)C)cc1F
19 | 3.3 nM | 0.5 nM | 0.24 nM | 0.48 nM | 0.13 nM | 2.3 | 4.7 | 4.3 | 0.71 nM | CCCc1nc2ccc(NC(=O)N3CCOCC3)cc2c(=O)n1Cc1ccc(-c2ccccc2S(=O)(=O)NC(=O)OCCC(C)C)cc1F
